Test results as given in US8236841B2, “Fused heterocycle derivative” (Kyowa Hakko Kirin Co., Ltd., priority 2006, dated 2012).
pEC50, pKi: −log10 of the molar value.

Legend:
CB2 receptor = molecular target: T1, CB2 receptor (Rattus norvegicus, UniProt Q9QZN9); assay: [3H]CP55940 binding assay, CB2 receptor (rat spleen membrane); conditions: [3H]CP55940 0.5 nmol/L, 25° C. 1 hour
T1 construct: from tissue; host or cells: rat spleen membranes
T1 sequence (Q9QZN9 1-360): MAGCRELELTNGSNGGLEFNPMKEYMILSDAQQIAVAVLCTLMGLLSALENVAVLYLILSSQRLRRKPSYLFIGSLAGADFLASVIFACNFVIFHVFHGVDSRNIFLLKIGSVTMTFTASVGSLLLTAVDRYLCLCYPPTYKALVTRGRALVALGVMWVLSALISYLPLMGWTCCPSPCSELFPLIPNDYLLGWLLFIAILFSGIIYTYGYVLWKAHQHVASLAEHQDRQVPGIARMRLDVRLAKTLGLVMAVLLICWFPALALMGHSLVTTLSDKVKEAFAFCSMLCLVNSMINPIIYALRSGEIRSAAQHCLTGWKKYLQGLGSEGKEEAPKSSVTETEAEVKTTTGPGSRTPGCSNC
Experimental: Cannabinoid CB1 and CB2 receptor-binding activities
The assay was performed according to a method of Hillard et al. (The Journal of Pharmacology and Experimental Therapeutics, vol. 289, p. 1427 (1999)). A rat forebrain membrane sample was prepared for use in the binding assay for CB1 receptor, and a rat spleen membrane sample was prepared for use in the binding assay for CB2 receptor. Each membrane sample (forebrain: final concentration of 0.5 mg·protein/mL, spleen: final concentration of 2 mg·protein/mL) together with each test compound and [^3H]CP55940 ((−)-cis-3-[2-hydroxy-[3,5-^3H]-4-(1,1-dimethylheptyl)-phenyl]-trans-4-(3-hydroxypropyl)cyclohexanol, manufactured by PerkinElmer, final concentration of 0.5 nmol/L), was incubated at 25° C. for 1 hour in the assay buffer solution (50 mmol/L Tris-HCl buffer solution (pH 7.4), 1 mmol/L EDTA and 3 mmol/L MgCl2) containing 0.1% bovine serum albumin. Then, the mixture was filtered through a glass filter GF/C (manufactured by Whatman) pretreated with 1% polyethyleneimine. After the glass filter was washed with the assay buffer solution containing 0.2% bovine serum albumin, the radioactivity on the glass filter was measured using a liquid scintillation counter (TRI-CARB 2700TR, manufactured by Packard). The nonspecific binding amount was defined as a binding amount in the presence of 10 μmol/L […] ((R)-(+)-[2,3-dihydro-5-methyl-3-(4-morpholinylmethyl)-pyrrolo[1,2,3-de]-1,4-benzoxazin-6-yl]-1-naphthalenylmethanone, manufactured by Tocris). The specific binding amount was presented as the difference between the total binding amount and the nonspecific binding amount. The 50% inhibitory concentration (IC50 value) of the test compound in the specific binding was determined. The Ki value of the test compound was calculated from this IC50 value and the Kd value for [^3H]CP55940 binding.

human CB2 receptor = molecular target: T2, human CB2 receptor (Homo sapiens, UniProt P34972); assay: GTPγS binding assay via human CB2 receptor; assay type: biochemical; conditions: membrane of human CB2 receptor stably expressing CHO-K1 cells; for pEC50: read-out: EC50 value (agonist activity, [35S]GTPγS binding); for Emax: read-out: Emax value (maximum effect relative to CP55940 set to 100%)
T2 construct: expressed in transfected cells
T2 sequence (P34972 whole entry): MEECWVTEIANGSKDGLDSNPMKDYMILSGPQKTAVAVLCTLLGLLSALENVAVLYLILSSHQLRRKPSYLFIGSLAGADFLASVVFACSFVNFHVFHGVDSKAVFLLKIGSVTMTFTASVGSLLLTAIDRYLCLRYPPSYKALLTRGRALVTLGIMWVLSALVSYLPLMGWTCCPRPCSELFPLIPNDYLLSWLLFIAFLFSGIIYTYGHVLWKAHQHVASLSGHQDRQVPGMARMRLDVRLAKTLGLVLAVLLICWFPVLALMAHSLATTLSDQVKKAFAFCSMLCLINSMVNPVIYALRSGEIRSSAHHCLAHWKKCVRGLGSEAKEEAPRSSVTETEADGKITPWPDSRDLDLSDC
Experimental: GTPγS binding assay via human CB2 receptor
The assay was performed according to a method of Hillard et al. (The Journal of Pharmacology and Experimental Therapeutics, vol. 289, p. 1427 (1999)). For use as a membrane sample, a membrane fraction was prepared from human CB2 receptor stably expressing CHO-K1 cells (Nature, vol. 365, pp. 61-65 (1993)). The membrane sample (final concentration of 40 μg·protein/mL) together with each test compound and [^35S]GTPγS (manufactured by PerkinElmer, final concentration of 0.05 nmol/L), was incubated at 30° C. for 1 hour in the assay buffer solution (50 mmol/L Tris-HCl buffer solution (pH 7.4), 100 mmol/L NaCl, 1 mmol/L EDTA, 3 mmol/L MgCl2 and 0.1% bovine serum albumin) containing 20 μmol/L guanosine 5′-diphosphate (GDP). Then, the mixture was filtered through a glass filter GF/B (manufactured by Whatman). After the glass filter was washed with the assay buffer solution, the radioactivity on the glass filter was measured using a liquid scintillation counter (TRI-CARB 2700TR, manufactured by Packard). The nonspecific binding amount was defined as a binding amount in the presence of 10 μmol/L GTPγS. The specific binding amount was presented as the difference between the total binding amount and the nonspecific binding amount. The increase rate of the specific binding amount in the presence of the test compound relative to the specific binding amount in the absence of the test compound was defined as agonist activity of the test compound. The concentration which gives 50% of the maximum effect of the test compound (EC50 value) was calculated by nonlinear regression analysis of the concentration-response curve. The percentage of the maximum effect of the test compound (Emax value) was calculated based on the maximum effect of CP55940 (manufactured by Tocris) measured simultaneously set to 100%.

[1] = system: rats with chronic constriction nerve injury; assay: Analgesic effect in rats with chronic constriction nerve injury (von Frey filament); assay type: in vivo, rat; conditions: orally administered, dose of 50 mg/kg or less, one hour after administration, von Frey filaments
From the text: Analgesic Effect of Compounds in Rats with Chronic Constriction Nerve Injury
Rats with chronic constriction nerve injury were produced by partially modifying the method of Mosconi and Kruger et al. (Pain, vol. 64, pp. 37-57 (1996)).
Male Crl:CD(SD) rats were used for the experiments. Under pentobarbital anesthesia, the sciatic nerve of the left hind limb of the rat was exfoliated, and the exfoliated region was wrapped with a polyethylene tube (trade name: Intramedic, size: PE-60, manufactured by Becton Dickinson and Company) of 2 mm in length. On days 14 to 21 after the surgery, the rats were placed in an acrylic connected cage with a wire mesh floor (900 mm (length)×210 mm (depth)×140 mm (height)) consisting of 4 cages connected in a row and allowed to acclimate to the environment for at least 20 minutes, and then, the pain was evaluated.
The von Frey filament (trade name: touch test sensory evaluator, Model number: model 58011, manufactured by Muromachi Kikai) was used to evaluate pain, and the results were calculated as a pain threshold. That is, by using a von Frey filament of different stimulus intensity, stimulation was given to the plantar surface of the injured side of rats with chronic constriction nerve injury, and the stimulus intensity to cause paw withdrawal response was obtained. Then, the 50% pain threshold (Paw withdrawal threshold) (g) was calculated by the up down method of Dixon [Annual Review of Pharmacology and Toxicology, vol. 20, pp. 441-462 (1980)].
In the evaluation of the test compound, rats with 50% pain threshold of less than 4 g were used, and the test compound was dissolved in a 0.5% aqueous methyl cellulose solution and orally administered at a dose of 5 mL/kg. One hour after the administration, the pain threshold was measured using von Frey filaments.

| Compound | pKi (CB2 receptor) | pEC50 (human CB2 receptor) | Emax (human CB2 receptor) | 50% pain threshold (Paw withdrawal threshold) [1] |
| --- | --- | --- | --- | --- |
| CCN(CC)C(=O)c1ccn2c(CC3CCCCC3)c(C(C)(C)C)nc2c1 [Compound 1, 2-tert-Butyl-3-cyclohexylmethyl-N,N-diethylimidazo[1,2-a]-pyridine-7-carboxamide] | > 6.00 | > 6.00 | > 30% |  |
| CCN(CC)C(=O)c1ccn2c(CC3CCOCC3)c(C(C)(C)C)nc2c1 [Compound 2, 2-tert-Butyl-N,N-diethyl-3-(tetrahydropyran-4-ylmethyl)-imidazo[1,2-a]pyridine-7-carboxamide] | > 6.00 | > 6.00 | > 30% | significantly increased the pain threshold |
| CCN(CC)C(=S)c1ccn2c(CC3CCOCC3)c(C(C)(C)C)nc2c1 [Compound 8, 2-tert-Butyl-N,N-diethyl-3-(tetrahydropyran-4-ylmethyl)-imidazo[1,2-a]pyridine-7-carbothioamide] | > 6.00 | > 6.00 | > 30% |  |
| CCN(CC)C(=O)c1cc2nc(C(C)(C)C)c(CC3CCCCC3)n2cn1 [Compound 14, 2-tert-Butyl-3-cyclohexylmethyl-N,N-diethyl-imidazo[1,2-c]-pyrimidine-7-carboxamide] | > 6.00 | > 6.00 | > 30% |  |
| CCN(CC)C(=O)c1cc2nc(C(C)(C)C)c(CC3CCOCC3)n2cn1 [Compound 15, 2-tert-Butyl-N,N-diethyl-3-(tetrahydropyran-4-ylmethyl)-imidazo[1,2-c]pyrimidine-7-carboxamide] | > 6.00 | > 6.00 | > 30% | significantly increased the pain threshold |
| CCN(CC)C(=S)c1cc2nc(C(C)(C)C)c(CC3CCOCC3)n2cn1 [Compound 16, 2-tert-Butyl-N,N-diethyl-3-(tetrahydropyran-4-ylmethyl)-imidazo[1,2-c]pyrimidine-7-carbothioamide] | > 6.00 | > 6.00 | > 30% |  |
| CC(C)N(C)C(=O)c1ccn2c(CC3CCOCC3)c(C(C)(C)C)nc2c1 [Compound 17, 2-tert-Butyl-N-isopropyl-N-methyl-3-(tetrahydropyran-4-ylmethyl)-imidazo[1,2-a]pyridine-7-carboxamide] | > 6.00 | > 6.00 | > 30% | significantly increased the pain threshold |
| CC(C)CN(C)C(=O)c1ccn2c(CC3CCOCC3)c(C(C)(C)C)nc2c1 [Compound 18, 2-tert-Butyl-N-isobutyl-N-methyl-3-(tetrahydropyran-4-ylmethyl)imidazo[1,2-a]pyridine-7-carboxamide] | > 6.00 | > 6.00 | > 30% | significantly increased the pain threshold |
| CCN(CC)C(=O)c1ccn2c(CC3CCCCO3)c(C(C)(C)C)nc2c1 (centres unmarked) [Compound 27, 2-tert-Butyl-N,N-diethyl-3-(tetrahydropyran-2-ylmethyl)-imidazo[1,2-a]pyridine-7-carboxamide] | > 6.00 |  |  |  |
